The results in this text go back to patent publication US5300672A (priority 1992, dated 1994).

Assay [1] deals with Pseudomonas fluorescens. The assay is described as follows: Alternate Minimum Inhibitory Concentrations Test (Table 4), Ps.fl. Type of assay: cell-based. The note with it: Table 4 alternate test, 250 ppm to 0.8 ppm in TSB, 72 hours, 30° C.; for MIC: Pseudomonas fluorescens, read-out: MIC Ps.fl. How it is done:
The compounds of Examples 1-8, 12-26, 28-33, 36-37, 39-42, 44-109, 111-114, and 116-120 were subjected also to the following alternate biocidal activity test procedures with the results as indicated in Table 4.
The MIC test measures the viability of Pseudomonas fluorescens inoculum in TSB when exposed for 72 hours to varying concentrations of test compound.
A 125 μl aliquot of 10,000 ppm test compound in acetone was added to 4.88 ml of TSB to provide a 250 ppm solution. From this solution, 100 μL was transferred to the first row of two microtiter plate columns. Both replicates and five additional compounds were all serially diluted 1:1 to a final concentration of 0.8 ppm in TSB.
Inoculation was accomplished by diluting a 24 hr Ps fl culture, four mls per 36 mls of phosphate buffer solution. A Dynatech autoinoculator was used to transfer 1.5 μl of this cell suspension to the microtiter plates. The plates were incubated at 30° C. for 3 days before the lowest concentration at which no growth occurs was recorded in the database.

The test system of assay [2] is Piricularia oryzae. As to the kind of experiment: whole plant or invertebrate. Type of assay: in vivo. The note with it: for pest or weed control at 100 ppm: read-out: % Control RB, application rate 100 ppm; for pest or weed control at 200 ppm: read-out: % Control RB, application rate 200 ppm; for % Control RB: in vivo.
In assay [3] the test system is Pellicularia filamentosa (f. sp. sasiki). The assay is described as follows: whole plant or invertebrate. It is filed as in vivo. The following applies: for pest or weed control at 100 ppm / pest or weed control at 200 ppm: 120 h, read-out: % Control RSB; for % Control RSB: in vivo.
Assay [4] concerns Phytophthora infestans. As to the kind of experiment: whole plant or invertebrate. Type of assay: in vivo.
Assay [5] relates to Puccinia recondita (f. sp. tritici Races PKB and PLD). The assay is described as follows: whole plant or invertebrate. The note with it: for pest or weed control at 100 ppm / pest or weed control at 200 ppm: Puccinia recondita, 240 h, read-out: % Control WLR; for % Control WLR: in vivo. Type of assay: in vivo.
The test system of assay [6] is Erysiphe graminis (f. sp. tritici). As to the kind of experiment: whole plant or invertebrate. Type of assay: in vivo. The following applies: for % Control WPM: in vivo.
Where [7] appears, read: Phytophthora infestans, in Solanum lycopersicum, 96 h, read-out: % Control TLB.
Setting [8] is: Blumeria graminis, read-out: % Control WPM.
Where [9] appears, read: Phytophthora infestans, in Solanum lycopersicum, 96 h, read-out: % Control TLB, application rate 100 ppm.
The mark [10] stands for this setting: Phytophthora infestans, in Solanum lycopersicum, 96 h, read-out: % Control TLB, application rate 200 ppm.

Where two headings read alike, the source gives them in different places.

On to `CCCCCCCCNC(=O)/C=C\SC(=O)CC(=O)OCC` [Compound 2, N-octyl-cis-3-(ethylmalonylthio)acrylamide], for which the minimal inhibitory concentration (MIC) (in general, the lowest concentration found to suppress growth) in assay [1] is greater than 250 µg/mL. Also, the pest or weed control at 6 ppm in assay [2] (Pyricularia oryzae, read-out: % Control RB, application rate 6 ppm) turned out to be 50%. Further, the pest or weed control at 100 ppm amounted to 0% in assay [3], 90% in assay [4] (setting [7]), 0% in assay [5] and 0% in assay [6] (setting [8]).
With `CCCCCCCCNC(=O)/C=C\SC(=O)c1ccccc1` [Compound 1, N-octyl-cis-3-(benzoylthio)acrylamide], the MIC in assay [1] is greater than 250 µg/mL. Also, the pest or weed control at 100 ppm is 0% in assay [2] (Pyricularia oryzae); 0% in assay [3]; 100% in assay [4] (setting [9]); 0% in assay [5]; 0% in assay [6] (setting [8]).
On to `CCCCCCCCNC(=O)/C=C\SC/C=C/c1ccccc1` [Compound 13, N-octyl-cis-3-[(trans-3-phenylprop-2-ene)thio]acrylamide], for which the MIC in assay [1] is greater than 250 µg/mL. Further, the pest or weed control at 100 ppm in assay [2] (Pyricularia oryzae) was 0%; in assay [3], 0%; in assay [4] (setting [7]), 80%; in assay [5], 0%; in assay [6] (setting [8]), 0%.
As for `CCCCCCCCNC(=O)/C=C\SC(=O)c1cc(Cl)cc(Cl)c1` [Compound 54, N-octyl-cis-3-[(3,5-dichlorobenzoyl)thio]acrylamide], in assay [1], the MIC is greater than 250 µg/mL. The pest or weed control at 100 ppm in assay [3] is 0%; in assay [4] (setting [7]), 85%; in assay [5], 0%; in assay [6] (setting [8]) it was 0%.
With `C=Cc1ccc(C(=O)S/C=C\C(=O)NCCCCCCCC)cc1` [Compound 64, N-octyl-cis-3-[(4-ethenylbenzoyl)thio]acrylamide], the minimum inhibitory concentration (MIC) in assay [1] was greater than 250 µg/mL. Besides, the pest or weed control at 200 ppm in assay [2] (Pyricularia oryzae) came to 0%; in assay [3], 0%; in assay [4] (setting [7]), 80%; in assay [5] it was 0%; in assay [6] (setting [8]), 0%.
Regarding `CCCCCCCCNC(=O)/C=C\SC(C)C(=O)OC` (stereo not drawn) [Compound 38], the pest or weed control at 25 ppm in assay [2] (Pyricularia oryzae, read-out: % Control RB, application rate 25 ppm) was 80%. The pest or weed control at 100 ppm in assay [3], in assay [5] and in assay [6] (setting [8]) was 0% each time. Also, the pest or weed control at 6 ppm in assay [4] (setting [7]) was 80%.
For `CCCCCCCCNC(=O)/C=C\SC(=O)C(CC)CCCC` (stereo not drawn) [Compound 27, N-octyl-cis-3-[(2-ethylhexanoyl)thio]acrylamide], the pest or weed control at 100 ppm in assay [2] (Pyricularia oryzae) was determined as 0%; in assay [3], 0%; in assay [4] (setting [7]), 90%; in assay [5], 0%; in assay [6] (setting [8]), 0%.
With “N-octyl-cis-3-[(3-cyanobenzoyl)thio]acrylamide [Compound 67]”, the “MIC Ps.fl” value in assay [1] is greater than 250 Ppm. Besides, the “% Control RB” value in assay [2] was 0 % Control. In assay [3], the “% Control RSB” value is 0 % Control. Also, the “% Control TLB” value in assay [4] (application rate 200 ppm) was determined as 95 % Control. Moreover, in assay [5], the “% Control WLR” value is listed as 0 % Control. Moreover, the “% Control WPM” value in assay [6] came to 0 % Control.
As for `CCCCCCCCNC(=O)C=CSC(CO)COc1ccc(OC)cc1` (stereo not drawn) [Compound 39, N-octyl-cis-3-[(1-hydroxy-3-(4-methoxyphenoxy)-2-propane)thio]acrylamide], the “MIC Ps.fl” value in assay [1] was greater than 250 Ppm. In assay [2], the “% Control RB” value turned out to be 80 % Control. For the same compound, the “% Control RSB” value in assay [3] was determined as 0 % Control. Further, the “% Control TLB” value in assay [4] (application rate 100 ppm) is given as 0 % Control. Besides, the “% Control WLR” value in assay [5] amounted to 0 % Control. Moreover, the “% Control WPM” value in assay [6] is 0 % Control.
On to `CCCCCCCCNC(=O)/C=C\SC(=O)/C=C/c1cccs1` [Compound 66, N-octyl-cis-3-[(trans-3-(2-thiophene)propenoyl)thio]acrylamide], for which, in assay [1], the MIC is greater than 250 µg/mL. Moreover, the pest or weed control at 50 ppm in assay [2] (Pyricularia oryzae, read-out: % Control RB, application rate 50 ppm) turned out to be 50%. Moreover, the pest or weed control at 200 ppm in assay [3] stood at 0%; in assay [4] (setting [7]) it was 90%; in assay [5], 0%; in assay [6] (setting [8]), 0%.
Turning to `CCCCCCCCNC(=O)/C=C\SC(=O)COCC` [Compound 60, N-octyl-cis-3-(ethoxyacetylthio)acrylamide], in assay [1], the MIC was greater than 250 µg/mL. The pest or weed control at 200 ppm worked out at 50% in assay [2] (Pyricularia oryzae); 0% in assay [3]; 95% in assay [4] (setting [10]); 25% in assay [5]; 0% in assay [6] (setting [8]).
`CCCCCCCCNC(=O)/C=C\SC(=O)c1ccoc1` [Compound 62, N-octyl-cis-3-(3-furoylthio)acrylamide]: in assay [1], the MIC was greater than 250 µg/mL. Moreover, the pest or weed control at 200 ppm in assay [2] (Pyricularia oryzae) came to 0%; in assay [3], 0%; in assay [4] (setting [7]), 90%. The pest or weed control at 100 ppm in assay [5] amounted to 0%. Further, the pest or weed control at 12 ppm in assay [6] (setting [8]) came out at 50%.
`CCCCCCCCNC(=O)/C=C\SC(=O)c1ccccc1CCl` [Compound 35, N-octyl-cis-3-[(2-(chloromethyl)benzoyl)thio]acrylamide]: the pest or weed control at 100 ppm was found to be 80% in assay [2] (Pyricularia oryzae); 0% in assay [3]; 0% in assay [4] (setting [9]); 0% in assay [5]; 85% in assay [6] (setting [8]).
`CCCCCCCCNC(=O)/C=C\SC(=O)c1c(Cl)cccc1Cl` [Compound 21, N-octyl-cis-3-[(2,6-dichlorobenzoyl)thio]acrylamide]: the MIC in assay [1] was greater than 250 µg/mL. For the same compound, the pest or weed control at 100 ppm in assay [2] (Pyricularia oryzae) is 0%; in assay [3], 0%; in assay [4] (setting [7]) it was 80%; in assay [5], 0%; in assay [6] (setting [8]), 0%.
Regarding `CCCCCCCCNC(=O)/C=C\SC(=O)c1cccc(Br)c1` [Compound 36, N-octyl-cis-3-[(3-bromobenzoyl)thio]acrylamide], the MIC in assay [1] was greater than 250 µg/mL. For the same compound, the pest or weed control at 25 ppm in assay [2] (Pyricularia oryzae, read-out: % Control RB) came to 90%. Further, the pest or weed control at 100 ppm in assay [3], in assay [4] (setting [9]), in assay [5] and in assay [6] (setting [8]) was 0% throughout.
In the case of `CCCCCCCCNC(=O)/C=C\SC(=O)c1ccsc1` [Compound 65, N-octyl-cis-3-[(3-thiophene)carbonylthio]acrylamide], the MIC in assay [1] was greater than 250 µg/mL. In addition, the pest or weed control at 200 ppm in assay [2] (Pyricularia oryzae) is 0%; in assay [3], 0%; in assay [4] (setting [10]), 95%; in assay [5], 0%; in assay [6] (setting [8]), 0%.
For `CCCCCCCCNC(=O)/C=C\SC(=O)c1cnc2ccccc2c1` [Compound 72, N-octyl-cis-3-[(3-quinoline)carbonylthio]acrylamide], the MIC in assay [1] was greater than 250 µg/mL. Further, the pest or weed control at 200 ppm amounted to 0% in assay [2] (Pyricularia oryzae); 50% in assay [3]; 90% in assay [4] (setting [7]); 0% in assay [5]; 0% in assay [6] (setting [8]).
In the case of `CCCCCCCCNC(=O)/C=C\SC(=O)c1cc2ccccc2s1` [Compound 19, N-octyl-cis-3-[(2-benzo(6)thiophene)carbonylthio]acrylamide], the MIC in assay [1] was greater than 250 µg/mL. The pest or weed control at 100 ppm worked out at 0% in assay [2] (Pyricularia oryzae); 0% in assay [3]; 90% in assay [4] (setting [7]); 0% in assay [5]; 0% in assay [6] (setting [8]).
On to `CCCCCCCCNC(=O)/C=C\SC(=O)CCCCCCCCCCC#N` [Compound 58, N-octyl-cis-3-[(11-cyanoundecanoyl)thio]acrylamide], for which the MIC in assay [1] was greater than 250 µg/mL. The pest or weed control at 200 ppm in assay [3] stood at 50%; in assay [4] (setting [10]), 0%; in assay [5], 0%; in assay [6] (setting [8]), 0%.
`CCCCCCCCNC(=O)/C=C\SCC(=O)OCC` [Compound 34, N-octyl-cis-3-(ethoxycarbonylmethanethio)acrylamide]: the pest or weed control at 100 ppm was found to be 0% in assay [2] (Pyricularia oryzae); 90% in assay [3]; 80% in assay [4] (setting [7]); 0% in assay [5]; 0% in assay [6] (setting [8]).
